Results taken from patent publication US7723289B2, “PIF tetrapeptides” (BioIncept, LLC, priority 2003, dated 2010).

Legend:
mice = assay: Subcutaneous osmotic mini-pump administration in mated mice, implantation sites; assay type: in vivo
Procedure: Preliminary in vivo assessment of PIF-1 antagonist by using PIF1scr/amide was performed. […] Following the protocol below: (Dr Hoberman, Argus, Inc) PIF-1scr/amide was introduced two days after estrus to mice through an osmotic mini-pump (Alzet Model 2001; 1 ul/hr for 7 days) containing either 0.9% saline or 150 ug or 800 ug PIF-1scr/amide/day release in saline. The pumps were inserted subcutaneously under ketamine/xylazine anesthesia. Female mice were placed with male mice on the third day afternoon of the expected estrus. Four different groups 5 each were studied, low and high dose PIF-1scr/amide, saline control, and one group with PIF-1. Mating was confirmed by the presence of sperm in the vagina or a copulatory plug the next morning. Pregnancy (or lack thereof) was determined by sacrificing on day 10 after breeding and the uterine horns were examined for implantation sites by using Chicago Blue solution.
The group treated with PIF-1 160 ug/kg/day appeared to have increased number of implantation sites and this was associated with a higher rate of fetal survival compared to vehicle treated controls.

PBMC [1] = assay: Time-dependent cytokine secretion by PBMC (Table 3); assay type: cell-based, human
Procedure: Detailed time dependent and multiple controls were used the secretion of several cytokines by PBMC (IL-2, IL-5, IL-8, GM-CSF, IL-4, IL-10, TNF-α, IFN-γβ, IL-1 and IL-6) were measured. […] By 4 hours, sPIF-1 blocked TNF alpha with recovery by 24 hours. Also INFgamma secretion initiated only after 48 hours. […] Effects on cytokines was already noted at 0.7 nM. Similar effects were found also with other mitogens LPS and PHA when PIF-1 was tested.

PBMC [2] = assay: PIF-1 effects on cytokine expression in patient and control PBMC (Table 7); assay type: cell-based, human; settings: for TH1/TH2 change in parentheses: PHA + PIF-115 + vs PHA + alone; for IL-10 / TH1/TH2 / TNFα: PHA +, PIF-115 +
β-3 integrin = β-3 integrin expression by human endometrial epithelial cells (flow cytometry, immunocytochemistry); assay type: cell-based
Procedure: Human endometrial tissues were digested and stromal and epithelial cells (hEEC) isolated and cultured with a fetal bovine serum (FBS)-enriched medium until confluent layers were obtained. After that the cells were cultured for two more days in a FBS free-medium followed by a further 2-day culture in the same medium containing PIF peptides (1-500 nM).
In addition, to compare the recovery of β-3 integrin expression with PIF effects described after cultured hEEC in a free-fetal bovine serum (FBS) medium some cells were cultured again in FBS-medium. […] PIF binding to epithelial cells was also examined. Binding was examined using MaBCD2 staining.

[3] = 160 ug/kg/day, compared to vehicle treated controls
[4] = 4 h post induction, substance alone
[5] = 4 h post induction, with MabCD3 coated wells
[6] = 24 h post induction, substance alone
[7] = 24 h post induction, with MabCD3 coated wells
[8] = 48 h post induction, substance alone
[9] = 48 h post induction, with MabCD3 coated wells
[10] = 96 h post induction, substance alone
[11] = 96 h post induction, with MabCD3 coated wells

Procedure for T cells: We have examined using calcium mobilization in T cells which is central to T-Cell activation initiated by antigen presentation to the T-Cell Receptor (TCR) antigen whether PIF-1 acts through mobilization of Ca++flux. Activation of T-cells was carried out by using phorbal ester (PMA) and Ca2+ ionomycin both of which synergize through two different signaling pathways the former through Protein Kinase C, while the later through Tyrosine Kinases. […] We have also looked at Tcell activation using PHA.
Calcium channel analysis method: 2E6 freshly isolated PBMC in RPMI1640+10% FBS (HI) and equilibrated for 24 hours. Cells are loaded with a proprietary dye that fluorescence when bound with Ca++. PIF-11 or 50 nM as well as 1-50 nM scrPIF-1 were added prior to inducing the cells with PMA/ionomycin or PHA20 ug/ml or vehicle 0.005% DMSO. PIF-1 treated cells are loaded into the Flexstation and the inducer is added robotically with a liquid handler. At a precise time fluorescence monitoring commences. CA++ mobilization involves initially at least sequestered within organelles to the cytoplasm where it binds with the dye and produces a fluorescent signal.

MVRIKPGSANKPSDD [sPIF-1(15)]
number of implantation sites (mice; [3]): increased
rate of fetal survival (mice; [3]): higher rate
effect on maternal body weights (mice; all tested groups): no effect
effect on mouse fetuses number (mice; early pregnancy): no significant effect
toxic effects following administration in early pregnancy (mice; pregnant mice): no toxic effects
PHA stimulation of Ca2+ influx (T cells; PHA activated T cells): does not show any inhibition
Ca++ mobilization (T cells; PMA and ionomycin activated T-cells, 1 nM-50 uM): did not affect
concentration at which effects on cytokines was already noted (PBMC [1]): 0.7 nM
GM-CSF (PBMC [1]; [4]): 0 pg/mL
IFN-y (PBMC [1]; [4]): 0 pg/mL
IL-1β (PBMC [1]; [4]): 0 pg/mL
IL-2 (PBMC [1]; [4]): 0 pg/mL
IL-4 (PBMC [1]; [4]): 0 pg/mL
IL-5 (PBMC [1]; [4]): 0 pg/mL
IL-6 (PBMC [1]; [4]): 0 pg/mL
IL-8 (PBMC [1]; [4]): 684.5 pg/mL
IL-10 (PBMC [1]; [4]): 0 pg/mL
TNF-α (PBMC [1]; [4]): 0 pg/mL
GM-CSF (PBMC [1]; [5]): 0 pg/mL
IFN-y (PBMC [1]; [5]): 0 pg/mL
IL-1β (PBMC [1]; [5]): 0 pg/mL
IL-2 (PBMC [1]; [5]): 0 pg/mL
IL-4 (PBMC [1]; [5]): 0 pg/mL
IL-5 (PBMC [1]; [5]): 0 pg/mL
IL-6 (PBMC [1]; [5]): 17.5 pg/mL
IL-8 (PBMC [1]; [5]): 514.8 pg/mL
IL-10 (PBMC [1]; [5]): 0 pg/mL
TNF-α (PBMC [1]; [5]): 481.6 pg/mL
GM-CSF (PBMC [1]; [6]): 0 pg/mL
IFN-y (PBMC [1]; [6]): 0 pg/mL
IL-1β (PBMC [1]; [6]): 0 pg/mL
IL-2 (PBMC [1]; [6]): 0 pg/mL
IL-4 (PBMC [1]; [6]): 0 pg/mL
IL-5 (PBMC [1]; [6]): 0 pg/mL
IL-6 (PBMC [1]; [6]): 36.3 pg/mL
IL-8 (PBMC [1]; [6]): >6330 pg/mL
IL-10 (PBMC [1]; [6]): 0 pg/mL
TNF-α (PBMC [1]; [6]): 38.0 pg/mL
GM-CSF (PBMC [1]; [7]): 58.9 pg/mL
IFN-y (PBMC [1]; [7]): 0 pg/mL
IL-1β (PBMC [1]; [7]): 2914.1 pg/mL
IL-2 (PBMC [1]; [7]): 9045.7 pg/mL
IL-4 (PBMC [1]; [7]): 58.9 pg/mL
IL-5 (PBMC [1]; [7]): 397.5 pg/mL
IL-6 (PBMC [1]; [7]): >5200 pg/mL
IL-8 (PBMC [1]; [7]): >6330 pg/mL
IL-10 (PBMC [1]; [7]): 1710.1 pg/mL
TNF-α (PBMC [1]; [7]): >11390 pg/mL
GM-CSF (PBMC [1]; [8]): 0 pg/mL
IFN-y (PBMC [1]; [8]): 0 pg/mL
IL-1β (PBMC [1]; [8]): 0 pg/mL
IL-2 (PBMC [1]; [8]): 0 pg/mL
IL-4 (PBMC [1]; [8]): 0 pg/mL
IL-5 (PBMC [1]; [8]): 0 pg/mL
IL-6 (PBMC [1]; [8]): 0 pg/mL
IL-8 (PBMC [1]; [8]): >6330 pg/mL
IL-10 (PBMC [1]; [8]): 0 pg/mL
TNF-α (PBMC [1]; [8]): 0 pg/mL
GM-CSF (PBMC [1]; [9]): 0 pg/mL
IFN-y (PBMC [1]; [9]): >4740 pg/mL
IL-1β (PBMC [1]; [9]): 3295.4 pg/mL
IL-2 (PBMC [1]; [9]): 6015.3 pg/mL
IL-4 (PBMC [1]; [9]): 0 pg/mL
IL-5 (PBMC [1]; [9]): 943.6 pg/mL
IL-6 (PBMC [1]; [9]): >5200 pg/mL
IL-8 (PBMC [1]; [9]): >6330 pg/mL
IL-10 (PBMC [1]; [9]): 664.9 pg/mL
TNF-α (PBMC [1]; [9]): >11390 pg/mL
GM-CSF (PBMC [1]; [10]): 0 pg/mL
IFN-y (PBMC [1]; [10]): 0 pg/mL
IL-1β (PBMC [1]; [10]): 0 pg/mL
IL-2 (PBMC [1]; [10]): 0 pg/mL
IL-4 (PBMC [1]; [10]): 0 pg/mL
IL-5 (PBMC [1]; [10]): 0 pg/mL
IL-6 (PBMC [1]; [10]): 0 pg/mL
IL-8 (PBMC [1]; [10]): 6679.0 pg/mL
IL-10 (PBMC [1]; [10]): 0 pg/mL
TNF-α (PBMC [1]; [10]): 0 pg/mL
GM-CSF (PBMC [1]; [11]): 0 pg/mL
IFN-y (PBMC [1]; [11]): 0 pg/mL
IL-1β (PBMC [1]; [11]): 0 pg/mL
IL-2 (PBMC [1]; [11]): 0 pg/mL
IL-4 (PBMC [1]; [11]): 0 pg/mL
IL-5 (PBMC [1]; [11]): 0 pg/mL
IL-6 (PBMC [1]; [11]): 0 pg/mL
IL-8 (PBMC [1]; [11]): 0 pg/mL
IL-10 (PBMC [1]; [11]): 0 pg/mL
TNF-α (PBMC [1]; [11]): 0 pg/mL
Th2 cytokine (IL10) secretion (PBMC [1]; CD3MAb as mitogen, after 24 hours): Major increase
TNF alpha secretion (PBMC [1]; CD3MAb as mitogen, by 4 hours, recovery by 24 hours): blocked
TH1/TH2 change in parentheses (PBMC [2]; control): −19%
IL-10 (PBMC [2]; control): 28.18 % of total PBMC in scatter gate
TH1/TH2 (PBMC [2]; control): 0.55
TNFα (PBMC [2]; control): 15.46 % of total PBMC in scatter gate
TH1/TH2 change in parentheses (PBMC [2]; patient): +32%
IL-10 (PBMC [2]; patient): 24.32 % of total PBMC in scatter gate
TH1/TH2 (PBMC [2]; patient): 0.75
TNFα (PBMC [2]; patient): 18.32 % of total PBMC in scatter gate
increase in the expression of β-3-epithelial integrin (β-3 integrin; hEEC, 2-day culture, 1-500 nM): up to a four-fold increase
interaction with cultures of human endometrial stromal cells (β-3 integrin; stromal cells): did not interact
